pEC50: −log10 of the molar value. Read-outs that look alike come from different tables or passages of the source.
What was measured:
[1] = test system: panel of 50 human kinases; test: Kinase panel activity; type: biochemical; settings: 1 μM
Protocol: Kinase panel activity: Activity of compounds at 1 μM was assessed against a panel of 50 kinase enzymes (MKK1, JNK1, p38a MAPK, RSK1, PDK1, PKBa, SGK1, S6K1, PKA, ROCK 2, PRK2, PKCa, PKD1, MSK1, CAMKKb, CAMK1, SmMLCK, CHK2, GSK3b, PLK1, Aurora B, LKB1, AMPK (hum), MARK3, CK1δ, CK2, DYRK1A, NEK6, TBK1, PIM1, SRPK1, EF2K, HIPK2, PAK4, MST2, MLK3, TAK1, IRAK4, RIPK2, TTK, Src, Lck, BTK, JAK3, SYK, EPH-A2, HER4, IGF-1R, TrkA, VEG-FR) carried out by the MRC Protein Phosphorylation and Ubiquitinylation Unit at the University of Dundee, Dundee, DD1 5EH, UK.

[2] = test system: S. japonicum adult; test: In vitro adult S. japonicum worm assay; type: cell-based; settings: for pEC50: Schistosoma japonicum, S. japonicum, 120 h incubation, read-out: Sj adult EC50; for Potency ratio Sj/Sm: adult EC50 S. japonicum / S. mansoni
From the text: The Puerto Rican strain of S. mansoni was maintained in Biomphalaria glabrata and CD1 mice. Oncomelania hupensis (hupensis) infected with S. japonicum (Chinese strain) and Bulinus truncatus (truncatus) infected with Egyptian strain S. haematobium were obtained from BEI Resources, NIAID, NIH. Infection of mice for worm recovery was as previously described except that, whereas cercariae of S. mansoni and S. haematobium were obtained by shedding from infected snails under lights, cercariae of S. japonicum were obtained by gently crushing the snails. Furthermore, adult S. haematobium were recovered after 12 weeks following mouse infection.
In vitro efficacy was carried out as previously described. In brief, worms were recovered from infected mice by portal perfusion 3 weeks (for juveniles) or 6 weeks (for adults) post-infection using warm perfusion medium (Dulbecco’s Modified Eagle’s Medium [DMEM], 2mM L-glutamine, 100 Units/ml penicillin, 100μg/ml streptomycin, 20mM Hepes, 10 Units/ml heparin [Sigma, UK]). Worms were washed free of red blood cells using the perfusion medium, and finally suspended in complete medium (cDMEM: DMEM, 2mM L-glutamine, 100 Units/ml penicillin, 100μg/ml streptomycin, 10% FCS). The juvenile assays were carried out in 96-well plates, each well containing 6–8 worms in 200 μL cDMEM. The adult worm assay was in 24-well plates, each well containing 3 worm pairs in 1mL cDMEM. Both the juvenile and adult worm cultures were kept at 37° C, in an atmosphere of 5% CO2. Drug effects were determined on day 5 following drug treatment by assessing the viability of individual worms as described in [14].

[3] = In vivo efficacy, mouse model of adult (42-day old) S. mansoni infection; settings: female, CD1, mouse, plasma, po, mouse, Adult infection, read-out: Plasma conc @24 h (efficacy experiment)
Protocol: (§1) Prior to in vivo efficacy experiments, a single animal was given a dose of drug (using the same formulation) that was twice as large as that planned for use in the efficacy experiments and was observed periodically for adverse clinical signs for 24h by trained veterinarians. Adverse clinical signs checked include postural defect, vocalization, oculo-nasal discharge, hypersalivation, change in activity, abnormal gait, respiration and pulse, piloerection, loss of pupillary reflex, eyelid reflex, chromodacryorrhea, reaction to handling, tremor, convulsions, prostration, diarrhoea, cachexia, emaciation. […] In vivo efficacy was assessed in female CD1 mice using methods based on those previously described. Mice were infected subcutaneously with 150 cercariae. Test compounds were suspended in 7% Tween-80 / 3% Ethanol / double distilled water and drug dispersal was facilitated by vortexing and using a sonicating water bath (Formulation “Aqueous”). Alternatively, drugs were first dissolved in DMSO, then diluted with corn oil to give a 1:19 DMSO:corn oil solution/suspension of test compound (Formulation “Corn oil”). Dosing was by oral gavage. Mice in the negative control groups were given the drug suspension vehicle only. Positive controls for treatment of adult, day 42 old, infections were treated with PZQ and those for juvenile, day 21 old, infections with artemether, which unlike PZQ is effective against the juvenile worm infections in mice. During and following treatment, mice were closely observed for any ill effects by staff experienced in animal handling. This involved individuals who were blinded to the treatment groups. Effects they were trained to look for included hunching, immobility, piloerection, subdued behaviour, diarrhoea and loss of body condition. None were seen. Worms were recovered by portal perfusion with citrate saline 8–14 days post treatment and counted. Differences between groups relative to the non-drug treated controls were assessed for statistical significance by Student’s unpaired t-test using GraphPad Prism Software. P values are presented as follows:- ns–P > 0.05 (not significant), * P ≤ 0.05, ** P ≤ 0.01, *** P ≤ 0.001, **** P ≤ 0.0001.
(§2) For pharmacokinetic analysis during the in vivo efficacy experiments individual animals were only sampled once. Samples were taken from one animal in each experimental group at each of 1, 4, 8 h and samples from two animals in each group were taken at 24 h.

[4] = test system: S. mansoni adult worms; test: as above
Protocol: as §1, §2

[5] = Observation of mice for adverse clinical signs / ill effects; type: in vivo; settings: 200 mg/kg single oral dose, one mouse 400 mg/kg
Protocol: Prior to in vivo efficacy experiments, a single animal was given a dose of drug (using the same formulation) that was twice as large as that planned for use in the efficacy experiments and was observed periodically for adverse clinical signs for 24h by trained veterinarians. Adverse clinical signs checked include postural defect, vocalization, oculo-nasal discharge, hypersalivation, change in activity, abnormal gait, respiration and pulse, piloerection, loss of pupillary reflex, eyelid reflex, chromodacryorrhea, reaction to handling, tremor, convulsions, prostration, diarrhoea, cachexia, emaciation. […] In vivo efficacy was assessed in female CD1 mice using methods based on those previously described. Mice were infected subcutaneously with 150 cercariae. Test compounds were suspended in 7% Tween-80 / 3% Ethanol / double distilled water and drug dispersal was facilitated by vortexing and using a sonicating water bath (Formulation “Aqueous”). Alternatively, drugs were first dissolved in DMSO, then diluted with corn oil to give a 1:19 DMSO:corn oil solution/suspension of test compound (Formulation “Corn oil”). […] Worms were recovered by portal perfusion with citrate saline 8–14 days post treatment and counted. Differences between groups relative to the non-drug treated controls were assessed for statistical significance by Student’s unpaired t-test using GraphPad Prism Software. […]

[6] = biological target: T1, Kv1.5 (Homo sapiens, UniProt P22460); test: Ion channel activity (Metrion), Kv1.5, QPatch; type: cell-based; settings: dose-response up to 10 μM
T1 construct: Metrion biosciences
Protocol: (§3) Ion channel activity. Activity of compounds against ion channels was assessed by Metrion biosciences, Cambridge, CB21 6AD, UK in dose-response experiments (n = 2) up to 10 μM compound concentration with standards & equipment as listed for each ion channel (hERG–verapamil—QPatch, Nav1.5 –amitryptiline—QPatch, Kv1.5 –transDSC—QPatch, Cav1.2 –nimodipine—Flex).

[7] = Stability in plasma; type: in vitro ADME; settings: 37°C for 3 h
[8] = biological target: T2, Cav1.2 (Homo sapiens, UniProt Q13936); test: Ion channel activity (Metrion), Cav1.2, Flex; type: cell-based; settings: dose-response up to 10 μM
T2 construct: Metrion biosciences
Protocol: as §3

[9] = biological target: T3, hERG (Homo sapiens, UniProt Q12809); test: Ion channel activity (Metrion), hERG, QPatch; type: cell-based; settings: dose-response up to 10 μM
T3 construct: Metrion biosciences
Protocol: as §3

[10] = Stability in phosphate buffer and simulated gastric fluid; type: physicochemical; settings: for degradation in simulated gastric fluid: pH 1.2, 37°C for 3 h; for degradation in phosphate buffer: pH 8.0, 37°C for 3 h
[11] = biological target: T4, Nav1.5 (Homo sapiens, UniProt Q14524); test: Ion channel activity (Metrion), Nav1.5, QPatch; type: cell-based; settings: dose-response up to 10 μM
T4 construct: Metrion biosciences
Protocol: as §3

[12] = in vivo; settings: rat
[13] = rat, in vivo

T1 sequence (P22460 whole entry): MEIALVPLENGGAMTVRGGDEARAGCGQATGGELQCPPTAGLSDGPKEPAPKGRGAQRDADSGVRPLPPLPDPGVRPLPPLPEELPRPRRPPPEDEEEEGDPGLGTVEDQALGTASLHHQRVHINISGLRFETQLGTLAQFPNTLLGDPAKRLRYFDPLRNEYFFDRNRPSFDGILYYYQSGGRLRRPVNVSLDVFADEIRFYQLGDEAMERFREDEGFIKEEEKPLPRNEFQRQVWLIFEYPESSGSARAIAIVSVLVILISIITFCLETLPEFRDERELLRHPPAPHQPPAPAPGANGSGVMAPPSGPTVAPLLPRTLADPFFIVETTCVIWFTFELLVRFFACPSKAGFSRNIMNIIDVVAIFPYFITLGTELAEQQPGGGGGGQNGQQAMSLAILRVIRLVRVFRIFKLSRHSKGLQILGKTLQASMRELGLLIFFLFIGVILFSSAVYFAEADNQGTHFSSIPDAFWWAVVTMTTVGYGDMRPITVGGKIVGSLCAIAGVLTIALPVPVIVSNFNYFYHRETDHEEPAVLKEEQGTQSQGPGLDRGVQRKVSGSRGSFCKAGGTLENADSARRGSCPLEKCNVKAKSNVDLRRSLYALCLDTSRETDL
T2 sequence (Q13936 whole entry): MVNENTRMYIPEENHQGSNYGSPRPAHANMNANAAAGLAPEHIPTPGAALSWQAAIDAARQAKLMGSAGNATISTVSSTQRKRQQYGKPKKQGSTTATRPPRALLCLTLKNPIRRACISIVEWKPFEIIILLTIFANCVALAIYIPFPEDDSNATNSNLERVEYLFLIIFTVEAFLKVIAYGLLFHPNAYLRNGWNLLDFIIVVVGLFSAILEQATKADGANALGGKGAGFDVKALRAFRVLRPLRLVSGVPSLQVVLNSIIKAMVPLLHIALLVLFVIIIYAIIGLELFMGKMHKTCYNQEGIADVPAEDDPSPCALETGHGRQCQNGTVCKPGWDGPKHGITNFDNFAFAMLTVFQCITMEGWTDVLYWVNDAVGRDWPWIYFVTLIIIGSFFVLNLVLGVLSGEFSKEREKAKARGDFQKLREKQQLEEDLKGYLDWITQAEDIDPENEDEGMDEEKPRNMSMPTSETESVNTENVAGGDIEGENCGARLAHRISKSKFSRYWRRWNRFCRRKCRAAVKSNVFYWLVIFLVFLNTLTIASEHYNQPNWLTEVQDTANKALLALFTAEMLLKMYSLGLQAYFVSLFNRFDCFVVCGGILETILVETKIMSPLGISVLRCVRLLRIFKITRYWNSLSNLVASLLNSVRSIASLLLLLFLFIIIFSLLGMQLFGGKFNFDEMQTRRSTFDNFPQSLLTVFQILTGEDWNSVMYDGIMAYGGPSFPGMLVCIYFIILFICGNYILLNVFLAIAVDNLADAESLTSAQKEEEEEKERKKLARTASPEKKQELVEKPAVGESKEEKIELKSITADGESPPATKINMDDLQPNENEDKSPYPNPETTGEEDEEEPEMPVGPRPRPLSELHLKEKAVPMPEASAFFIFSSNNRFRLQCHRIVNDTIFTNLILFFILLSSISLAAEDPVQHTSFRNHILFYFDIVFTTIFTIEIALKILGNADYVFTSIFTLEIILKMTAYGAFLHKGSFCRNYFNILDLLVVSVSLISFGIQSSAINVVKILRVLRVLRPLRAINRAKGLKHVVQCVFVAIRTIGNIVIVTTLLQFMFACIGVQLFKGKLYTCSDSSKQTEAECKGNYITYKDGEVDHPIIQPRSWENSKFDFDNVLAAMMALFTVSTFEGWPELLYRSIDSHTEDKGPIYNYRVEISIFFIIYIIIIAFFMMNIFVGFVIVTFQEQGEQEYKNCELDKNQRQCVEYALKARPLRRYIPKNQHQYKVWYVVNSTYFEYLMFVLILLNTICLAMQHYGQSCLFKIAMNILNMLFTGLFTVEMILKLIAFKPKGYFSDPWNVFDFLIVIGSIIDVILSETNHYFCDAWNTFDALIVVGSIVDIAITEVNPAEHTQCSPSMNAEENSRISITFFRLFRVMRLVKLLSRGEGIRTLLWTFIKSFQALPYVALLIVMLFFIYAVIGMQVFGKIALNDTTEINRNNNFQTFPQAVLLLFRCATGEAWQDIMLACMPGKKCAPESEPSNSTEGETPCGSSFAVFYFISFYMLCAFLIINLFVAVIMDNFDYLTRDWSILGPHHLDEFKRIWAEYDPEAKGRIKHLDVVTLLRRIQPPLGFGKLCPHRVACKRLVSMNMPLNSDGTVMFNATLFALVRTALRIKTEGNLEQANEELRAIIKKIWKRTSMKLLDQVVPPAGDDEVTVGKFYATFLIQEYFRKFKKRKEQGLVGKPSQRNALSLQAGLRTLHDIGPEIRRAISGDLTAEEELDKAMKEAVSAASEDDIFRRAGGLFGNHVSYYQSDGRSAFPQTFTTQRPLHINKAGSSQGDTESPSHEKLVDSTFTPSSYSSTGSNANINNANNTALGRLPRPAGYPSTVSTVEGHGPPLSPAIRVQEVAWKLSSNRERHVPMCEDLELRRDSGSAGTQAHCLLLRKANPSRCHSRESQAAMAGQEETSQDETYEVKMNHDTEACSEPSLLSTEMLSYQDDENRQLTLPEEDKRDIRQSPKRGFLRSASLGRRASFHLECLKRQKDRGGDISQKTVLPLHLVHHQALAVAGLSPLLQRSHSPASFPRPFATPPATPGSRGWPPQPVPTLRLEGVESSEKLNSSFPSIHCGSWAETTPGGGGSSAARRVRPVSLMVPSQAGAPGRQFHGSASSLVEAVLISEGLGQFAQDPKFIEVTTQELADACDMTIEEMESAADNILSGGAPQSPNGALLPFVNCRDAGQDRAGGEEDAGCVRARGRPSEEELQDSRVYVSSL
T2 sequence (Q08289 whole entry partner): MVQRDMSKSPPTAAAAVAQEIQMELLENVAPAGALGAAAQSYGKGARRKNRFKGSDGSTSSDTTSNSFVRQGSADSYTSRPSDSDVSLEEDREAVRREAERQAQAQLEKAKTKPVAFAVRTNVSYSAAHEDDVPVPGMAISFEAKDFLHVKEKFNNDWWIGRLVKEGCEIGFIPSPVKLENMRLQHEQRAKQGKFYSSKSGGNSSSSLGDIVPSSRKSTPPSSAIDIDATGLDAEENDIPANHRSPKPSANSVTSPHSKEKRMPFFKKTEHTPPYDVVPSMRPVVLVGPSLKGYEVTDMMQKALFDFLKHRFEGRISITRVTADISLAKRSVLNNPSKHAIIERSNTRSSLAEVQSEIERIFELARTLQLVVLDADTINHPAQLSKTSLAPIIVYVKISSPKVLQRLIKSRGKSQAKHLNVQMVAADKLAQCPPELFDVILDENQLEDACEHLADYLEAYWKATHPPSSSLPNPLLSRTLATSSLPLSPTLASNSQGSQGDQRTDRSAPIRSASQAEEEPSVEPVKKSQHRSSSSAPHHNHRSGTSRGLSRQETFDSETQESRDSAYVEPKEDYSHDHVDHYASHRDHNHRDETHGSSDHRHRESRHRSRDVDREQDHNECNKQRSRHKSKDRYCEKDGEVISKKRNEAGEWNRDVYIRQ
T2 sequence (P54289 25-956 partner limits assumed): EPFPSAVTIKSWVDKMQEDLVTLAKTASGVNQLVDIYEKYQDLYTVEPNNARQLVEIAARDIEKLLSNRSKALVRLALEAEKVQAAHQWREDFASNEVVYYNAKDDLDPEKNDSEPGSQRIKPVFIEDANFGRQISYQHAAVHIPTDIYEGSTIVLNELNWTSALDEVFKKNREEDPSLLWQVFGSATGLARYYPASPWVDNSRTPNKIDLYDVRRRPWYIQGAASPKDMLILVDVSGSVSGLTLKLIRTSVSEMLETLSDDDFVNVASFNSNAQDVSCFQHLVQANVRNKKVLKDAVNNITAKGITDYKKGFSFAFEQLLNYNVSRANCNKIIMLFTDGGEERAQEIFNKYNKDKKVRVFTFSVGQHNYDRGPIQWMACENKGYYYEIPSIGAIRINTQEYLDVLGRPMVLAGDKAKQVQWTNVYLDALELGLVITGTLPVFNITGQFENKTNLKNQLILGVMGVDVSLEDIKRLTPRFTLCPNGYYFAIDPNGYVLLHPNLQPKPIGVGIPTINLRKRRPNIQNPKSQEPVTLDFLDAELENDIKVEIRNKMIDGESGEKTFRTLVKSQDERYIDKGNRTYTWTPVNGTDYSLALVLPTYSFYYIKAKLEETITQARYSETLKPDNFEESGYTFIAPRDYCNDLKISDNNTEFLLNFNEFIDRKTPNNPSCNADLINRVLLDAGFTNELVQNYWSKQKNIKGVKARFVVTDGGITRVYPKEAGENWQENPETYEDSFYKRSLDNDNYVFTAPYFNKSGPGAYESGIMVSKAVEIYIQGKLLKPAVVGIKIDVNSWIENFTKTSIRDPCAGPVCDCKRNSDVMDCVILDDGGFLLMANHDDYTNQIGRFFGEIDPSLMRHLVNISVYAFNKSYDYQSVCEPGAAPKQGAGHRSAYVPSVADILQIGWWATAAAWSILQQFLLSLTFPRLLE
T2 sequence (P54289 957-1103 partner limits assumed): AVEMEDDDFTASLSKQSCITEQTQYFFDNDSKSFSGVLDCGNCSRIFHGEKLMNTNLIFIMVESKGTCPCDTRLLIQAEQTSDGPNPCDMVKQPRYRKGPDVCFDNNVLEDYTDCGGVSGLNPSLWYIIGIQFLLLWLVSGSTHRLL

SMILES | inhibition, panel of 50 human kinases [1] [%] | pEC50 [2] | degradation in plasma [7] | degradation in simulated gastric fluid [10] | degradation in phosphate buffer [10] | Potency ratio Sj/Sm [2] | inhibition of Kv1.5 [6] | inhibition of Cav1.2 [8] | inhibition of hERG [9] | inhibition of Nav1.5 [11] | other results
CC(C)c1nc2cnc(-c3ccc(F)c(C(F)(F)F)c3)cn2c1-c1c(F)cc(O)cc1F [LSHTM-3520] | ≤ 25 | 7.13 |  |  |  | 1.6 |  |  |  |  | concentration at 24 h ([3]; 200 mg/kg, oral 200 mg/kg, formulation Aq): 2000 ng/mL; reducing the S. mansoni worm count ([4]; mice infected for 42 days (adult worms), 200 mg/kg single oral dose): highly effective; Worms remaining ([4]; mouse, Adult infection, oral 200 mg/kg, formulation Aq): 1%; Plasma conc @24 h (efficacy experiment) ([4]; mouse, Adult infection, oral 200 mg/kg, formulation Aq, 200 mg/kg): 1,907 ng/mL; issues observed with the animals exposed [5]: no issues observed
Fc1ccc(-c2cn3c(-c4ccc5[nH]ncc5c4F)c(C(F)(F)F)nc3cn2)cc1C(F)(F)F [LSHTM-3642, 3-(4-fluoro-1H-indazol-5-yl)-6-(4-fluoro-3-(trifluoromethyl)phenyl)-2-(trifluoromethyl)imidazo[1,2-a]pyrazine] | ≤ 25 | 6.41 |  |  |  |  |  |  |  |  | AUC(0-inf) ([12]; iv, 1 mg/kg): 5000 ng·h/mL; Vd ([12]; iv, 1 mg/kg): 8.8 L/kg; bioavailability ([12]; po, 10 mg/kg): 67%; Clobs ([13]; iv, 1 mg/kg): 3.33 mL/min/kg; Plasma conc @ 24 h after oral dose ([13]; po, 10 mg/kg, 24 h): 357 ng/mL; concentration at 24 h ([3]; 12.5 mg/kg, oral 12.5 mg/kg, formulation Aq): 939 ng/mL; in vivo EC50 against adult worms ([4]; mouse model, single oral dose (Fig 9A)): < 6.25 mg/kg; Worms remaining ([4]; mouse, Adult infection, oral 12.5 mg/kg, formulation Aq): 1%
CC(C)c1cc(-c2cn3c(-c4ccc5[nH]ncc5c4F)c(C4CC4)nc3cn2)ccc1F [LSHTM-3686] |  | 7.33 | No degradation | No degradation | No degradation | 8.7 | Neither LSHTM-3645 nor LSHTM-3686 showed any inhibition | Neither LSHTM-3645 nor LSHTM-3686 showed any inhibition | Neither LSHTM-3645 nor LSHTM-3686 showed any inhibition | Neither LSHTM-3645 nor LSHTM-3686 showed any inhibition | concentration at 24 h ([3]; oral 6.25x2 mg/kg (12 h apart), formulation corn oil): 241 ng/mL; Worms remaining ([4]; mouse, Adult infection, oral 6.25x2 mg/kg (12 h apart), formulation corn oil): 2.4%

Now from value to compound, other results behind:

inhibition, panel of 50 human kinases [1] [%] | pEC50 [2] | degradation in plasma [7] | degradation in simulated gastric fluid [10] | degradation in phosphate buffer [10] | SMILES | Potency ratio Sj/Sm [2] | inhibition of Kv1.5 [6] | inhibition of Cav1.2 [8] | inhibition of hERG [9] | inhibition of Nav1.5 [11] | other results
≤ 25 |  |  |  |  | CC(C)c1nc2cnc(-c3ccc(F)c(C(F)(F)F)c3)cn2c1-c1ccc2[nH]ncc2c1F [LSHTM-3604] |  |  |  |  |  | 
 | 6.89 | No degradation | No degradation | No degradation | Fc1ccc(-c2cn3c(-c4ccc5[nH]ncc5c4F)c(C(F)(F)F)nc3cn2)cc1C(F)(F)C(F)(F)F [LSHTM-3645] | 13.3 | Neither LSHTM-3645 nor LSHTM-3686 showed any inhibition | Neither LSHTM-3645 nor LSHTM-3686 showed any inhibition | Neither LSHTM-3645 nor LSHTM-3686 showed any inhibition | Neither LSHTM-3645 nor LSHTM-3686 showed any inhibition | concentration at 24 h ([3]; 6.25 mg/kg, oral 6.25 mg/kg, formulation corn oil): 1010 ng/mL; Worms remaining ([4]; mouse, Adult infection, oral 6.25 mg/kg, formulation corn oil): 1%; efficacy against adult worm infections ([4]; mouse, single oral dose (Fig 9B)): highly effective
 | 7.02 |  |  |  | Fc1c(-c2c(C(F)(F)F)nc3cnc(-c4cccc(C(F)(F)C(F)(F)F)c4)cn23)ccc2[nH]ncc12 [LSHTM-3608] | 6.2 |  |  |  |  | 

Reference: publication PMC8321398, “The discovery of a novel series of compounds with single-dose efficacy against juvenile and adult Schistosoma species” (PLoS Neglected Tropical Diseases, 2021)
